Results taken from ChEMBL document CHEMBL5365544, “Design, synthesis of auristatins-glucuronide conjugates targeting the β-glucuronidase in tumor microenvironment” (Bioorg Med Chem Lett, 2023).
Activity calls are given as the source filed them. No cut-off for these calls is given here.

Legend:
HeLa [1] = assay: Antiproliferative activity against human HeLa cells assessed as inhibition of cell growth; type: functional, cell-based
A549 [2] = assay: Antiproliferative activity against human A549 cells assessed as inhibition of cell growth in presence of beta-glucuronidase; type: functional, cell-based
[3] = Stability of compound in bovine serum solution for 37 degC assessed as degradation measured after 48 hrs by HPLC method; type: ADME, cell-free, Bos taurus; settings: cattle
HeLa [4] = assay: Antiproliferative activity against human HeLa cells assessed as inhibition of cell growth in presence of beta-glucuronidase; type: functional, cell-based
[5] = Chemical stability of compound in phosphate buffer at pH 7.4 for 37 degC assessed as degradation measured after 48 hrs by HPLC method; type: physicochemical; settings: pH 7.4, 48 h
A549 [6] = assay: Antiproliferative activity against human A549 cells assessed as inhibition of cell growth; type: functional, cell-based
HCT-116 [7] = assay: Antiproliferative activity against human HCT-116 cells assessed as inhibition of cell growth in presence of beta-glucuronidase; type: functional, cell-based
HCT-116 [8] = assay: Antiproliferative activity against human HCT-116 cells assessed as inhibition of cell growth; type: functional, cell-based
[9] = Chemical stability of compound in phosphate buffer at pH 7.4 for 37 degC assessed as drug degradation measured after 20 mins in presence of beta-glucuronidase by HPLC method relative to control; type: physicochemical; settings: phosphate buffer with beta-glucuronidase, read-out: Drug degradation
[10] = Chemical stability of compound in phosphate buffer at pH 7.4 for 37 degC assessed as drug degradation measured after 2 hrs in presence of beta-glucuronidase by HPLC method; type: physicochemical; settings: pH 7.4, 2 h
HCT-116 [11] = assay: Antitumor activity against human HCT-116 cells xenografted in iv dosed BALB/C mouse assessed as tumor growth inhibition administered every 5 days; type: functional, organism-based; settings: dose 2-4 mg/kg, time 5.0 day
[12] = Toxicity in BALB/c mouse assessed as body weight loss at 2 to 4 mg/kg, iv administered every 3 days; type: organism-based; settings: in vivo, 72 h, dose 2-4 mg/kg, time 3 day
[13] = Toxicity in BALB/c mouse assessed as side effect at 2 to 4 mg/kg, iv administered every 3 days; type: organism-based; settings: in vivo, 72 h, dose 2-4 mg/kg, time 3 day
HCT-116 [14] = assay: Antitumor activity against human HCT-116 cells xenografted in BALB/C mouse assessed as tumor growth inhibition at 0.5 mg/kg, iv administered every 5 days; type: functional, organism-based; settings: time 5.0 day

CC[C@H](C)[C@@H]([C@@H](CC(=O)N1CCC[C@H]1[C@H](OC)[C@@H](C)C(=O)N[C@H](C)[C@@H](OC(=O)N(C)CCN(C)C(=O)OCc1ccc(O[C@@H]2O[C@H](C(=O)O)[C@@H](O)[C@H](O)[C@H]2O)c([N+](=O)[O-])c1)c1ccc(F)cc1)OC)N(C)C(=O)[C@@H](NC(=O)[C@H](C(C)C)N(C)C)C(C)C
IC50 (HeLa [1]): 990 nM | IC50 (A549 [2]): 9.68 nM | Stability [3]: Stable | IC50 (HeLa [4]): 8.3 nM | Stability [5]: Stable | IC50 (A549 [6]): 1020 nM | IC50 (HCT-116 [7]): 9.11 nM | IC50 (HCT-116 [8]): 1110 nM

CC[C@H](C)[C@@H]([C@@H](CC(=O)N1CCC[C@H]1[C@H](OC)[C@@H](C)C(=O)N[C@H](C)[C@@H](OC(=O)N(C)CCN(C)C(=O)OCc1ccc(O[C@@H]2O[C@H](C(=O)O)[C@@H](O)[C@H](O)[C@H]2O)c([N+](=O)[O-])c1)c1ccccc1)OC)N(C)C(=O)[C@@H](NC(=O)[C@H](C(C)C)N(C)C)C(C)C
metabolised at 20 min [9]: 48% | IC50 (HeLa [1]): 1650 nM | Stability [10]: Unstable | IC50 (A549 [2]): 6.38 nM | Stability [3]: Stable | Activity (HCT-116 [11]): Dose-Dependent Effect | IC50 (HeLa [4]): 5.73 nM | Stability [5]: Stable | Activity [12]: Non-Toxic | IC50 (A549 [6]): 1520 nM | IC50 (HCT-116 [7]): 6.61 nM | IC50 (HCT-116 [8]): 1490 nM

CC[C@H](C)[C@@H]([C@@H](CC(=O)N1CCC[C@H]1[C@H](OC)[C@@H](C)C(=O)N[C@H](C)[C@@H](O)c1ccccc1)OC)N(C)C(=O)[C@@H](NC(=O)[C@H](C(C)C)N(C)C)C(C)C
metabolised at 20 min [9]: 37% | IC50 (HeLa [1]): 4.89 nM | Stability [10]: Unstable | Activity [13]: Non-Toxic | Activity (HCT-116 [14]): Active | IC50 (A549 [6]): 5.03 nM | IC50 (HCT-116 [8]): 4.96 nM

CC[C@H](C)[C@@H]([C@@H](CC(=O)N1CCC[C@H]1[C@H](OC)[C@@H](C)C(=O)N[C@H](C)[C@@H](O)c1ccc(F)cc1)OC)N(C)C(=O)[C@@H](NC(=O)[C@H](C(C)C)N(C)C)C(C)C
IC50 (HeLa [1]): 4.87 nM | IC50 (A549 [6]): 5.52 nM | IC50 (HCT-116 [8]): 6.13 nM
